Test results as given in patent publication US20260317344A1, “EGFR INHIBITORS FOR TREATING DISEASE” (BLOSSOMHILL THERAPEUTICS, INC., priority 2023, published 2026).

Assays:
EGFR (L858R/T790M/C797S) = EGFR (L858R/T790M/C797S) (Homo sapiens, UniProt P00533, C797S/L858R/T790M); test: HotSpot radiometric kinase assay, inhibition of EGFR L858R/T790M/C797S mutant; type: biochemical; conditions: 33P ATP, room temperature, 120 m
Summary of the method: (§1)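 Radiometric filter-binding format: ATP plus 33P-ATP ([…]) was added about 20 min after compound to kinase and substrate in HEPES pH 7.5 buffer with Mg2+, EGTA, Brij35, BSA, vanadate, DTT and 1% DMSO. After 120 min at room temperature, reactions were spotted on P81 paper and washed in phosphoric acid; IC50 values fitted.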

[1] = target: T1, pEGFR, A431 cells (wildtype EGFR) (Homo sapiens, UniProt P00533); test: Cellular EGFR phosphorylation assay (LANCE Ultra TR-FRET) in A431 cells; type: cell-based; conditions: 4 hours at 37° C., 40 ng/mL EGF for the final 10 minutes, read-out: A431 pEGFR IC50
T1 construct: pEGFR (Tyr1068) TR-FRET
Summary of the method: (§2)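 Measured in intact cells exposed to compound for 4 hours, with A431 given EGF at 40 ng/mL for the closing 10 minutes; a TR-FRET antibody pair quantified phospho-Tyr1068 EGFR in lysates (4-6 h detection at room temperature), giving IC50.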

[2] = test system: BaF3 cells with engineered EGFR L858R/T790M/C797S; test: 3-Day CellTiter Glo (CTG) cell proliferation assay, BaF3 EGFR L858R/T790M/C797S; type: cell-based; conditions: Mus musculus, 3-day CTG proliferation, 72 hours
Summary of the method: (§3)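 Viability after 72 h compound exposure (9 concentrations, 37° C, 5% CO2) was measured as ATP luminescence with CellTiter-Glo 2.0 in EGFR-mutant-engineered BaF3 cells plated at one thousand cells per well. IC50 values obtained by curve fitting.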

EGFR (D770_N771insNPG) = EGFR (D770_N771insNPG) (Homo sapiens, UniProt P00533, INS770NPG); test: HotSpot radiometric kinase assay, inhibition of EGFR (D770_N771insNPG) mutant; type: biochemical; conditions: 33P ATP, room temperature, 120 m
Summary of the method: as §1

EGFR (L858R/T790M) = EGFR (L858R/T790M) (Homo sapiens, UniProt P00533, L858R/T790M); test: HotSpot radiometric kinase assay, inhibition of EGFR L858R/T790M mutant; type: biochemical; conditions: 33P ATP, room temperature, 120 m
Procedure: (§4) Biochemical Assays for inhibition of wild-type and mutant EGFRs
(§5) Briefly, specific kinase/substrate pairs along with required cofactors were prepared in reaction buffer; 20 mM HEPES pH 7.5, 10 mM […], 1 mM EGTA, 0.02% Brij35, 0.02 mg/ml BSA, 0.1 mM Na3VO4, 2 mM DTT, 1% DMSO. Compounds were delivered into the reaction, followed ~20 minutes later by addition of a mixture of ATP (Sigma, St. Louis MO) and ^33P ATP (Perkin Elmer, Waltham MA) to a final concentration of […]. Reactions were carried out at room temperature for 120 m, followed by spotting of the reactions onto P81 ion exchange filter paper (Whatman Inc., Piscataway, NJ). Unbound phosphate was removed by extensive washing of filters in 0.75% phosphoric acid. […] IC50 values and curve fits were obtained using Prism (GraphPad Software).

NCI-H1975 cells = test: 5-Day CellTiter Glo (CTG) cell proliferation assay, NCI-H1975; type: cell-based; conditions: Homo sapiens; NCI-H1975 cells (L858R/T790M EGFR), 5-day CTG proliferation, 120 hours; read-out: H1975 IC50
Summary of the method: (§6)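 Proliferation of EGFR-driven NSCLC cells was scored as CellTiter-Glo 2.0 luminescence after a 5-day (120 h) incubation with compounds in 9 doses. IC50 values came from the dose-response curves.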

EGFR (D746-750/C797S) = EGFR (D746-750/C797S) (Homo sapiens, UniProt P00533, C797S/DEL746-750); test: HotSpot radiometric kinase assay, inhibition of EGFR 746-750/C797S mutant; type: biochemical; conditions: 33P ATP, room temperature, 120 m
Summary of the method: as §1

EGFR WT = EGFR WT (Homo sapiens, UniProt P00533); test: HotSpot radiometric kinase assay, inhibition of EGFR WT; type: biochemical; conditions: 33P ATP, room temperature, 120 m
Procedure: as §4, §5

EGFR (D746-750) = EGFR (D746-750) (Homo sapiens, UniProt P00533, DEL746-750); test: HotSpot radiometric kinase assay, inhibition of EGFR 746-750 mutant; type: biochemical; conditions: 33P ATP, room temperature, 120 m
Summary of the method: as §1

EGFR (L858R) = EGFR (L858R) (Homo sapiens, UniProt P00533, L858R); test: HotSpot radiometric kinase assay, inhibition of EGFR L858R mutant; type: biochemical; conditions: 33P ATP, room temperature, 120 m
Procedure: as §4, §5

[3] = target: T2, pEGFR, NCI-H1975 cells (L858R/T790M EGFR) (Homo sapiens, UniProt P00533, L858R/T790M); test: Cellular EGFR phosphorylation assay (LANCE Ultra TR-FRET) in NCI-H1975 cells; type: cell-based; conditions: 4 hours at 37° C., read-out: H1975 pEGFR IC50
T2 construct: pEGFR (Tyr1068) TR-FRET
Summary of the method: as §2

PC-9 cells = test: 5-Day CellTiter Glo (CTG) cell proliferation assay, PC-9; type: cell-based; conditions: Homo sapiens; PC-9 cells (d746-750 EGFR), 5-day CTG proliferation, 120 hours; read-out: PC-9 IC50
Summary of the method: as §6

[4] = target: T3, pEGFR, PC-9 cells (d746-750 EGFR) (Homo sapiens, UniProt P00533, DEL746-750); test: Cellular EGFR phosphorylation assay (LANCE Ultra TR-FRET) in PC-9 cells; type: cell-based; conditions: 4 hours at 37° C., read-out: PC-9 pEGFR IC50
T3 construct: pEGFR (Tyr1068) TR-FRET
Summary of the method: as §2

HCC827 cells = test: 5-Day CellTiter Glo (CTG) cell proliferation assay, HCC827; type: cell-based; conditions: Homo sapiens; HCC827 cells (d746-750 EGFR), 5-day CTG proliferation, 120 hours; read-out: HCC827 IC50
Summary of the method: as §6

[5] = test system: BaF3 cells with engineered EGFR L858R/C797S; test: 3-Day CellTiter Glo (CTG) cell proliferation assay, BaF3 EGFR L858R/C797S; type: cell-based; conditions: Mus musculus, 3-day CTG proliferation, 72 hours
Summary of the method: as §3

[6] = test system: BaF3 cells with engineered EGFR d746-750/T790M; test: 3-Day CellTiter Glo (CTG) cell proliferation assay, BaF3 EGFR d746-750/T790M; type: cell-based; conditions: Mus musculus; BaF3 EGFR d746-750/T790M cells, 3-day CTG proliferation, 72 hours
Summary of the method: as §3

Sequence of EGFR WT (P00533 25-1210): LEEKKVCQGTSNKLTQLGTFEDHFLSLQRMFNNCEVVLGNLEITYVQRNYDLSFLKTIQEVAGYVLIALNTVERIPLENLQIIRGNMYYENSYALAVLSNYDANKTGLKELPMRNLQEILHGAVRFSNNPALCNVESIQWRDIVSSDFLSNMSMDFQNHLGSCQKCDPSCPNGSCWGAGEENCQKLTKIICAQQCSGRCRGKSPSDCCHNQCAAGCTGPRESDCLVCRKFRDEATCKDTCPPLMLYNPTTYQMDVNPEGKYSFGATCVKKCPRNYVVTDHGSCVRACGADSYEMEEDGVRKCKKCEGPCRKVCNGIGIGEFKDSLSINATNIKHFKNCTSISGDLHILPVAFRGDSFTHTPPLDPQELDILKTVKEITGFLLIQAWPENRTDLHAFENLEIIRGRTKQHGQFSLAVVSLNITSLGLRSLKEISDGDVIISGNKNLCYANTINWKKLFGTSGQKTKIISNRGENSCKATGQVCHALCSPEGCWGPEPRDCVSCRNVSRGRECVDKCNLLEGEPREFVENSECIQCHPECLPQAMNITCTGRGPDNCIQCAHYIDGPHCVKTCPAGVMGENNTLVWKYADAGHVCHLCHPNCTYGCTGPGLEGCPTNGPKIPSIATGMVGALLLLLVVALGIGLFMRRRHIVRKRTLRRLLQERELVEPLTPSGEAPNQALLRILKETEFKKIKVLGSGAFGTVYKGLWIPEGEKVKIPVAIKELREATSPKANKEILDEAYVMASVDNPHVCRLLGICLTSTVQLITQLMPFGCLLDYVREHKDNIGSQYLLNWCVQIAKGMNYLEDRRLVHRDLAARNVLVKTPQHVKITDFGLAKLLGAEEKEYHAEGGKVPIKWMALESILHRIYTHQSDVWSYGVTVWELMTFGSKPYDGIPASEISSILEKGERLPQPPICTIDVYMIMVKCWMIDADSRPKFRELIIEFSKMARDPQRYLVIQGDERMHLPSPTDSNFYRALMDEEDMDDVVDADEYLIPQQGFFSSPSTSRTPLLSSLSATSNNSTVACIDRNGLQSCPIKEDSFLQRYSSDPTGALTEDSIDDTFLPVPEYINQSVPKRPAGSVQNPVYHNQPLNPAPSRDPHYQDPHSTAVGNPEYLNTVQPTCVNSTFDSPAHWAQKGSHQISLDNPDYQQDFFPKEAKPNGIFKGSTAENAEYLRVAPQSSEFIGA
T1 sequence (P00533 25-1210): as above
Sequence of EGFR (L858R/T790M) (P00533 25-1210 T790M/L858R): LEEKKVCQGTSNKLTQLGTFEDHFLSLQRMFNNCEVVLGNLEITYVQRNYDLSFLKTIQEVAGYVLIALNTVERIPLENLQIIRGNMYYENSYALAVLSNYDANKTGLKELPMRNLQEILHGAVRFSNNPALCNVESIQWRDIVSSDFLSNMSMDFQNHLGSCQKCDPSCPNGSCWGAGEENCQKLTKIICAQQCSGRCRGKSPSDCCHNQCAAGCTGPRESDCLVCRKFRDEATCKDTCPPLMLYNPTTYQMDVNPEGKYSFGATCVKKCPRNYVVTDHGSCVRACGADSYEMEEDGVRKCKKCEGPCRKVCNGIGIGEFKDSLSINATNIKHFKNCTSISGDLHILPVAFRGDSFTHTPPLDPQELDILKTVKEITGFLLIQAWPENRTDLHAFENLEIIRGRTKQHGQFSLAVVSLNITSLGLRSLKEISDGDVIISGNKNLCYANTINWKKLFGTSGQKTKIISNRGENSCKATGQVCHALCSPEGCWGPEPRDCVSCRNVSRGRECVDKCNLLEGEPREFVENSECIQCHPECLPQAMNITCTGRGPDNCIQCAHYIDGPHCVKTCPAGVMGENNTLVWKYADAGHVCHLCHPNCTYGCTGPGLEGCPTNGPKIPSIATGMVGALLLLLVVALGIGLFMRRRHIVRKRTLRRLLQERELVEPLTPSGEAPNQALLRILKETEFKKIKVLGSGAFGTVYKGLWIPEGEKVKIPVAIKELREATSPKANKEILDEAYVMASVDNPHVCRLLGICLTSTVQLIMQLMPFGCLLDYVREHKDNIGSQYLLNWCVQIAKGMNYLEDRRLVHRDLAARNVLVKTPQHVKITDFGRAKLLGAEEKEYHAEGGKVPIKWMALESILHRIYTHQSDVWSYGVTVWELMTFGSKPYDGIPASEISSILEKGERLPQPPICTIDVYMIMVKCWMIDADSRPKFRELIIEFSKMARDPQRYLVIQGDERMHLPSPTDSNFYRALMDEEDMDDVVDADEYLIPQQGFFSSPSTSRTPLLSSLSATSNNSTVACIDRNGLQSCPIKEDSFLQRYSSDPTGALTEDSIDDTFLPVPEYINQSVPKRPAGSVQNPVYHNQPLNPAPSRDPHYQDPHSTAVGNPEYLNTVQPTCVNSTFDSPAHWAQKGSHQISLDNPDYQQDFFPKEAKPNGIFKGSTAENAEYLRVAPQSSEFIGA
T2 sequence (P00533 25-1210 T790M/L858R): as above

| SMILES | IC50 (EGFR (L858R/T790M/C797S)) [nM] | IC50 [1] [nM] | IC50 [2] [nM] | IC50 (EGFR (D770_N771insNPG)) [nM] | IC50 (EGFR (L858R/T790M)) [nM] | IC50 (NCI-H1975 cells) [nM] | IC50 (EGFR (D746-750/C797S)) [nM] | IC50 (EGFR WT) [nM] | IC50 (EGFR (D746-750)) [nM] | IC50 (EGFR (L858R)) [nM] | IC50 [3] [nM] | IC50 (PC-9 cells) [nM] | IC50 [4] [nM] | IC50 (HCC827 cells) [nM] | IC50 [5] [nM] | IC50 [6] [nM] |
| --- | --- | --- | --- | --- | --- | --- | --- | --- | --- | --- | --- | --- | --- | --- | --- | --- |
| CCOc1nn(CCO)c2c1/C=C/c1n[nH]c3cnc(cc13)-c1cnn(C)c1O[C@H](C)CN(C(C)C)C2 [Ex. 12, 2-[(10R,17E)-16-ethoxy-8,10-dimethyl-12-(propan-2-yl)-2,8,10,11,12,13-hexahydro-14H-5,3-(azenometheno)tripyrazolo[3,4-f:3′,4′-j:4″,3″-n][1,4]oxazacyclopentadecin-14-yl]ethan-1-ol] | 0.44 | 40.7 | 1.36 | 0.42 | 0.43 | 22.2 | 0.31 | 0.39 | 0.58 | 0.62 | 3.64 | 13.8 | 6.38 | 2.25 | 0.78 | – |
| CC(C)Oc1nn(CCO)c2c1/C=C/c1n[nH]c3cnc(cc13)-c1cnn(C)c1O[C@@H](C)CN(C)C2 [Ex. 5, 2-[(10S,17E)-8,10,12-trimethyl-16-[(propan-2-yl)oxy]-2,8,10,11,12,13-hexahydro-14H-5,3-(azenometheno)tripyrazolo[3,4-f:3′,4′-j:4″,3″-n][1,4]oxazacyclopentadecin-14-yl]ethan-1-ol] | 0.1 | 29.2 | – | 0.08 | 0.11 | 4.88 | 0.45 | 0.08 | 0.08 | 0.13 | 3.99 | 33.5 | 6.4 | 0.99 | – | – |
| CCOc1nn(CCO)c2c1/C=C/c1n[nH]c3cnc(cc13)-c1cnn(C)c1O[C@@H](C)CN(C(C)C)C2 [Ex. 11, 2-[(10S,17E)-16-ethoxy-8,10-dimethyl-12-(propan-2-yl)-2,8,10,11,12,13-hexahydro-14H-5,3-(azenometheno)tripyrazolo[3,4-f:3′,4′-j:4″,3″-n][1,4]oxazacyclopentadecin-14-yl]ethan-1-ol] | 0.43 | 16.1 | 0.83 | 0.23 | 0.44 | 3.14 | 0.31 | 0.1 | 0.52 | 0.38 | 5.25 | 3.65 | 2.86 | 0.25 | 0.16 | – |
| CCOc1nn(CCO)c2c1/C=C/c1n[nH]c3cnc(cc13)-c1cnn(C)c1O[C@H](C)CN(CC)C2 [Ex. 6, 2-[(10R,17E)-16-ethoxy-12-ethyl-8,10-dimethyl-2,8,10,11,12,13-hexahydro-14H-5,3-(azenometheno)tripyrazolo[3,4-f:3′,4′-j:4″,3″-n][1,4]oxazacyclopentadecin-14-yl]ethan-1-ol] | 0.12 | 42.7 | – | 0.07 | 0.15 | 28 | 0.49 | 0.13 | 0.09 | 0.16 | 10.9 | 27.6 | 6.85 | 1.98 | – | – |
| CCOc1nn(CCO)c2c1/C=C/c1n[nH]c3cnc(cc13)-c1cnn(C)c1OC[C@H](C)N(CC)C2 [Ex. 7, 2-[(11S,17E)-16-ethoxy-12-ethyl-8,11-dimethyl-2,8,10,11,12,13-hexahydro-14H-5,3-(azenometheno)tripyrazolo[3,4-f:3′,4′-j:4″,3″-n][1,4]oxazacyclopentadecin-14-yl]ethan-1-ol] | 0.23 | 70.9 | – | 1.09 | 0.28 | 47.4 | 0.74 | 1.16 | 0.29 | 0.89 | 14.2 | 59.7 | 24.3 | 5.17 | – | – |
| CCOc1nn([C@@H](C)CO)c2c1/C=C/c1n[nH]c3cnc(cc13)-c1cnn(C)c1O[C@@H](C)CN(C)C2 [Ex. 19, (2S)-2-[(10S,17E)-16-ethoxy-8,10,12-trimethyl-2,8,10,11,12,13-hexahydro-14H-5,3-(azenometheno)tripyrazolo[3,4-f:3′,4′-j:4″,3″-n][1,4]oxazacyclopentadecin-14-yl]propan-1-ol] | 1.78 | 10 | 0.79 | 0.19 | 0.37 | 1.51 | 0.6 | 0.15 | 0.14 | 0.2 | 2.85 | 2.74 | 2.54 | 0.28 | 0.16 | – |
| CCN1Cc2c(c(OC(C)C)nn2CCO)/C=C/c2n[nH]c3cnc(cc23)-c2cnn(C)c2O[C@@H](C)C1 [Ex. 9, 2-[(10S,17E)-12-ethyl-8,10-dimethyl-16-[(propan-2-yl)oxy]-2,8,10,11,12,13-hexahydro-14H-5,3-(azenometheno)tripyrazolo[3,4-f:3′,4′-j:4″,3″-n][1,4]oxazacyclopentadecin-14-yl]ethan-1-ol] | 0.49 | 19.8 | 0.93 | 0.29 | 0.45 | 3.22 | 0.33 | 0.18 | 0.67 | 0.45 | 4.19 | 12.1 | 3.48 | 0.39 | 0.19 | – |
| CCOc1nn(CCO)c2c1/C=C/c1n[nH]c3cnc(cc13)-c1c(C)nn(C)c1OC[C@H]1CCCN1C2 [Ex. 39] | 0.5 | 22.7 | 1.87 | 0.48 | – | 26.4 | 0.85 | – | 0.32 | – | 2.18 | 6.57 | 2.11 | 0.63 | 0.27 | 6.08 |
| Cc1nn([C@@H](C)CO)c2c1/C=C/c1n[nH]c3c(C)nc(cc13)-c1c(C)nn(C)c1O[C@@H](C)CN(C)C2 [Ex. 57, (2S)-2-[(10S,17E)-6,8,10,12,16,20-hexamethyl-2,8,10,11,12,13-hexahydro-14H-5,3-(azenometheno)tripyrazolo[3,4-f:3′,4′-j:4″,3″-n][1,4]oxazacyclopentadecin-14-yl]propan-1-ol] | 0.86 | 26.1 | 1.77 | 4.83 | – | 68.2 | 1.38 | – | 0.8 | – | 10.5 | 21.9 | 11.3 | 8.59 | 0.69 | 61.8 |
